Measurements reported in US20120039954A1, “METHOD OF TREATING INSOMNIA” (SOMNUS THERAPEUTICS, INC., priority 2008, published 2012).

Experiment: Drug plasma levels in the Example 9 trial
Conditions: 10 mg single oral dose
Source text: Non-elderly adults were enrolled in a cross-over, double-blind trial. […] Drug plasma levels were obtained at the same times.

CCN(C(C)=O)c1cccc(-c2ccnc3c(C#N)cnn23)c1 [zaleplon, N-[3-(3-cyanopyrazole[1,5-a]pyrimidin-7-yl)phenyl]-N-ethylacetamide]
Time post-dose at which drug plasma levels peaked: 1.5 h
